Measurements reported in patent US7301020B2, “Macrolide analogs and methods for identifying same” (priority 2003, dated 2007).
“Also recorded” adds a separate entry of the source.

System: NBT-II cells
Experiment: Effect of macrolides on NBT-II cells (live cell microscopy)
Type: cell-based, rat
Method: FIG. 7: Effect of KabC on NBT-II cells. NBT-II cells are imaged after 16 hours of drug treatment. KabC concentrations: (A), Control; (B), 10 nM; (C), 100 nM and (D), 1000 nM.
Cell Culture: Rat bladder NBT-II carcinoma cells and mouse NIH 3T3 fibroblast cells are maintained and treated with external drugs as described in Choidas et al (1998).
Live cell microscopy: A multi-model microscope workstation was used to image phase contrast and fluorescence images of living cells (Choidas et al, 1998). Cells are maintained at 37° in a Hepes based culture medium in a Bioptechs cell perfusion chamber (Choidas et al, 1998).

Kabiramide C [KabC]
concentration at which cytotoxic effects are seen: > 10 nM | cytotoxic activity on NBT II epithelia cells: concentration dependent cytotoxic activity | cell phenotype (10 nM, >12 hours): fail to complete cytokinesis and are immotile | cell phenotype (100 nM): the cells lose control of contractile functions and have enlarged vesicles | cell phenotype (1 μM or higher): complete breakdown of their actin cytoskeleton and die within a few hours | time to cell death (1000 nM): 8˜12 hours | cell phenotype (10˜100 nM): an increase in the number of blebs, a breakdown in the adherens junction and a cytokinesis defect; also recorded: cytoskeleton-linked phenotypes
